Reference: patent publication US11377656B2, “Chemically modified messenger RNA's” (Novartis AG, priority 2016, dated 2022)

Tests used:
T7 RNA polymerase = T7 RNA polymerase (Escherichia phage T7, UniProt P00573); assay: In vitro transcription (IVT) of mRNA with modified NTP; assay type: biochemical; details: modified NTP at 100% substitution of the corresponding natural nucleotide; human leptin template; yield as percent of unmodified mRNA yield
Source text: The modified synthetic mRNA was generated by in vitro transcription (IVT) incorporating the chemically modified nucleotide triphosphate (NTP) at 100% substitution of the corresponding natural nucleotide. The IVT plasmid template used contained a T7 promoter sequence and the human leptin coding sequence (Protein Accession #NP_000221) flanked by a 5′ untranslated region (UTR) of Tobacco Etch Virus with a strong Kozak sequence, and 2 tandem copies of the human beta-globin 3′UTR (Holtkamp S et al. (2006) Blood 108: 4009-4017) followed by a poly-A tail comprising 120 nucleotides in length.
A typical in vitro transcription reaction was done using the following protocol:
The IVT reagents in the Table above were mixed and incubated for 1-2 hours at 37° C. The DNA template was then digested with 0.04 U/μL DNase (New England Biolabs), and incubated for 30 minutes at 37° C. The mRNA was precipitated by adding lithium chloride (LiCl) solution (Ambion, Cat. #AM9480) to a final concentration of 2.81 M and incubating for >1 hour at −20° C. The mixture was centrifuged at 20,000×g for 15 minutes at 4° C., and then the supernatant was removed and the pellet washed with 70% ethanol. After centrifugation for 10 minutes, the ethanol was removed and the pellet was resuspended in nuclease-free water. In cases where the mRNA is used for HPLC purification, a second precipitation was done by adding 10% volume of 3 M sodium acetate pH 5.5 and 1 volume of room temperature isopropanol followed by incubation overnight at −20° C. The mRNA was centrifuged, washed and resuspended as described above. mRNA concentration was quantified using the NanoDrop and analyzed using an Agilent 2100 Bioanalyzer to confirm proper size and quality (i.e. no degradation). The modified mRNA can then be stored at −80° C. until capping.

HEK293 cells = assay: Modified mRNA transfection and in vitro translation (secreted leptin ELISA); assay type: cell-based; details: 1.5 micrograms capped leptin mRNA, Lipofectamine 2000, secreted leptin in medium at 24 h post-transfection
Procedure: Prior to transfection, the cells were seeded at a density 5×10^5 cells per well in 6-well plates. The following day, 1.5 micrograms of capped unmodified or chemically modified leptin mRNA was complexed with Lipofectamine 2000 (Life Technologies) and transfected into cells according to the manufacturer's protocol. At 24 h post-transfection, secreted leptin protein concentration in the culture medium was measured by an Enzyme-linked immunosorbent assay (ELISA) using the Human Leptin Quantikine ELISA kit from R&D Systems (Minneapolis, Minn.). Protein expression levels for chemically modified mRNAs are shown as a percent of the unmodified mRNA level.

T7 RNA polymerase, sequence (P00573 whole entry): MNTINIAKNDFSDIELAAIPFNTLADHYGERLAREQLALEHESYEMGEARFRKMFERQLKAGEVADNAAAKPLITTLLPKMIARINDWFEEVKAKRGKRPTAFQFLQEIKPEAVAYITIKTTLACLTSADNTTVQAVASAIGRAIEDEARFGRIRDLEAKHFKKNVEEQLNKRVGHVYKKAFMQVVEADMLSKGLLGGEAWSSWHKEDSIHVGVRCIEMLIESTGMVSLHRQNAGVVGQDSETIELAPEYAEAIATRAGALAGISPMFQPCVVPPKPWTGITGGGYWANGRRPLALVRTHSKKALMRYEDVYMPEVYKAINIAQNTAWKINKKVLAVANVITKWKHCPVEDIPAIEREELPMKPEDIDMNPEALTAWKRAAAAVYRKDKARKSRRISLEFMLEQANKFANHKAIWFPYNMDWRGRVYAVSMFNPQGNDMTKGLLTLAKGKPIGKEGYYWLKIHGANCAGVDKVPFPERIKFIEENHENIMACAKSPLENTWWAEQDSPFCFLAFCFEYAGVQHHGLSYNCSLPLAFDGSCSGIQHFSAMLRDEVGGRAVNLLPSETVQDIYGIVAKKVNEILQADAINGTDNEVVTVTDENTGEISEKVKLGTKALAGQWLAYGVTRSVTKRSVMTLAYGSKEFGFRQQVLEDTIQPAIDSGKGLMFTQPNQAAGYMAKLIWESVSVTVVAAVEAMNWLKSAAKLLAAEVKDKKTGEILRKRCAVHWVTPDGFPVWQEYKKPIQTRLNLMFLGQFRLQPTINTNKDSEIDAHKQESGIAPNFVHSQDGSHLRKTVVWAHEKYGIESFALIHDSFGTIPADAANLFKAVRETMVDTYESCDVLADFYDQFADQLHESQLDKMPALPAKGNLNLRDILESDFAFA

Row | Substance | In vitro transcription (mRNA quantity relative to unmodified NTP in percentage) (T7 RNA polymerase) | In vitro translation (Protein quantity relative to unmodified mRNA in percentage) (HEK293 cells)
1 | 7-methyl-9-deazaguanosine [compound 16] | >50% | <50%
2 | 1-methoxyethyl-pseudouridine [compound 11] | >50% | <50%
3 | 5-methoxycarbonyamino-uridine [compound 5] | >50% | <50%
4 | 1-methyoxymethyl-pseudouridine [compound 10] | >50% | >50%
